pIC50: −log10 of the molar value. Where “and” joins values, the source holds several entries; their conditions need not be identical. Equal values may be shown once. Read-outs that look alike come from different tables or passages of the source.

One experiment has as its target T1, mGlyT-1b (Mus musculus, UniProt P28571).
T1 construct: host or cells: Flp-in-CHO
T1 sequence (P28571 1-651 isoform P28571-2): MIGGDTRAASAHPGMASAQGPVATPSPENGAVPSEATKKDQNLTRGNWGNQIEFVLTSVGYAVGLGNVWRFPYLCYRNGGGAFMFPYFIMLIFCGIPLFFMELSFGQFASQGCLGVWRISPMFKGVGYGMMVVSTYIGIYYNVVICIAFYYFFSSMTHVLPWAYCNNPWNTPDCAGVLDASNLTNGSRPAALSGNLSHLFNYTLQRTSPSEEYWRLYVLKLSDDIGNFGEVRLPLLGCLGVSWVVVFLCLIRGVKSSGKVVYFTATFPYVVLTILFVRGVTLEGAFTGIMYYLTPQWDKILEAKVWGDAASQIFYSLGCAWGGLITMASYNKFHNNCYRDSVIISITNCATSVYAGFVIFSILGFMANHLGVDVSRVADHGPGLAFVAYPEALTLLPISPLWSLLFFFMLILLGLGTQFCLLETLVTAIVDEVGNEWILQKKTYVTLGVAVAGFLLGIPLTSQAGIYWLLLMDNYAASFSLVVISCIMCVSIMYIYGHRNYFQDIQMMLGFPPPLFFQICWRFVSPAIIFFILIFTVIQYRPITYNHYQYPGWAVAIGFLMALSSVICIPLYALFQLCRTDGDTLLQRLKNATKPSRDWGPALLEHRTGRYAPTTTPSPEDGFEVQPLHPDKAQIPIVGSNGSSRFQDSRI
The experiment can be described thus: Glycine uptake inhibition assay (mGlyT-1b). It counts as cell-based. How it is done: DMEM complete medium: Nutrient mixture F-12 (Gibco Life-technologies), fetal bovine serum (FBS) 5%, (Gibco life technologies), Penicillin/Streptomycinl % (Gibco life technologies), Hygromycin 0.6 mg/ml (Gibco life technologies), Glutamine 1 mM Gibco life technologies)
Uptake buffer (UB): 150 mM NaCl, 10 mM Hepes-Tris, pH 7.4, 1 mM CaCl2, 2.5 mM KCl, 2.5 mM MgSO4, 10 mM (+) D-glucose.
Flp-in™-CHO (Invitrogen Cat no. R758-07)cells stably transfected with mGlyT1b cDNA.
Glycine Uptake Inhibition Assay (mGlyT-1b)

A further experiment addresses T2, GlyT-1 (Homo sapiens, UniProt P48067).
T2 sequence (P48067 1-706): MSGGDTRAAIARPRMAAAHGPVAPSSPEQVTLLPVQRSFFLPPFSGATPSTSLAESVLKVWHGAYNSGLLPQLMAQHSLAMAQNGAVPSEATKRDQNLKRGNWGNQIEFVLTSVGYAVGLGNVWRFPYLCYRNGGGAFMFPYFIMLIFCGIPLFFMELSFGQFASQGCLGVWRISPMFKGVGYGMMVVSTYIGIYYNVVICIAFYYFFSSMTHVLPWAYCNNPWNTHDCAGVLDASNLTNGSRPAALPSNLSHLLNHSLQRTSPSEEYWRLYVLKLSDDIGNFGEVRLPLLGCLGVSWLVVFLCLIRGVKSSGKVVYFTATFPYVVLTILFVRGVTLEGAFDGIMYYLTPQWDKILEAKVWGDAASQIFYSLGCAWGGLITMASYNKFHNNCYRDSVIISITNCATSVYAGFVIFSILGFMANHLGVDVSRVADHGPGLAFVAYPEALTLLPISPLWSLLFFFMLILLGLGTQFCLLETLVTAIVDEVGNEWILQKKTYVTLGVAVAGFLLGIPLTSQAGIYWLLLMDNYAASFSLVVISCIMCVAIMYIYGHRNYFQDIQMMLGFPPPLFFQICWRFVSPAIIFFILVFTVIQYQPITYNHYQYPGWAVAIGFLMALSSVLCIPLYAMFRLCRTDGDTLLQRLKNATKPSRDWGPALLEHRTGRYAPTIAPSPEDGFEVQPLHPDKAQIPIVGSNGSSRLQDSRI
The experiment can be described thus: GlyT-1 inhibition, human. Type of experiment: cell-based.

For the molecule `O=C1NCC(c2ccc(F)cc2)C12CCN(C1(c3ccsc3)CCCCC1)CC2` (racemic) [Example 38, rac-4-(4-Fluoro-phenyl)-8-(1-thiophen-3-yl-cyclohexyl)-2,8-diaza-spiro[4.5]decan-1-one], the pIC50 is 7.00 and 6.67 against mGlyT-1b (GlyT-1 Enant. Mouse/human); 7.00 against mGlyT-1b (GlyT-1 Racemat Mouse/human).
Regarding `O=C1NCC(c2ccc(F)cc2)C12CCN(C1(c3ccc(F)cc3)CCCCCC1)CC2` (racemic) [Example 50, rac4-(4-Fluoro-phenyl)-8-[1-(4-fluoro-phenyl)-cycloheptyl]-2,8-diaza-spiro[4.5]decan-1-one], the pIC50 at GlyT-1 (racemate, human value (after the slash), read-out: GlyT-1 Racemat Mouse/human) is 6.88; at mGlyT-1b it was 7.09; on mGlyT-1b (second-listed enantiomer, mouse value (before the slash), read-out: GlyT-1 Enant. Mouse/human), 6.82.
`Cc1ccc(C2CNC(=O)C23CCN(C2(c4ccc(F)cc4)CCCCC2)CC3)cc1` (racemic) [Example 52, rac 8-[1-(4-Fluoro-phenyl)-cyclohexyl]4-p-tolyl-2,8-diaza-spiro [4.5]decan-1-one] showed a pIC50 against GlyT-1 (GlyT-1 Racemat Mouse/human) of 7.14.
